Measured values: patent publication US20260077051A1, “COMPOUNDS FOR THE DEGRADATION OF EGFR KINASE” (BeOne Medicines I GmbH, priority 2023, published 2026)

Experiments:
[1] = molecular target: T1, EGFR-L858R/C797S (H1975-clone #8 cells) (Homo sapiens, UniProt P00533, C797S/L858R); assay: EGFR degradation in H1975-clone#8 (L858R/C797S) cells (HTRF assay); type: cell-based; conditions: 16 h treatment; for DC50: IC50(DC50) of EGFR degradation; for Dmax: maximum percentage of inhibition (degradation)
T1 construct: expressed in transfected cells; host or cells: H1975 (lentiviral transduction, endogenous EGFR knocked out, single clone #8)
T1 sequence (P00533 25-1210 C797S/L858R): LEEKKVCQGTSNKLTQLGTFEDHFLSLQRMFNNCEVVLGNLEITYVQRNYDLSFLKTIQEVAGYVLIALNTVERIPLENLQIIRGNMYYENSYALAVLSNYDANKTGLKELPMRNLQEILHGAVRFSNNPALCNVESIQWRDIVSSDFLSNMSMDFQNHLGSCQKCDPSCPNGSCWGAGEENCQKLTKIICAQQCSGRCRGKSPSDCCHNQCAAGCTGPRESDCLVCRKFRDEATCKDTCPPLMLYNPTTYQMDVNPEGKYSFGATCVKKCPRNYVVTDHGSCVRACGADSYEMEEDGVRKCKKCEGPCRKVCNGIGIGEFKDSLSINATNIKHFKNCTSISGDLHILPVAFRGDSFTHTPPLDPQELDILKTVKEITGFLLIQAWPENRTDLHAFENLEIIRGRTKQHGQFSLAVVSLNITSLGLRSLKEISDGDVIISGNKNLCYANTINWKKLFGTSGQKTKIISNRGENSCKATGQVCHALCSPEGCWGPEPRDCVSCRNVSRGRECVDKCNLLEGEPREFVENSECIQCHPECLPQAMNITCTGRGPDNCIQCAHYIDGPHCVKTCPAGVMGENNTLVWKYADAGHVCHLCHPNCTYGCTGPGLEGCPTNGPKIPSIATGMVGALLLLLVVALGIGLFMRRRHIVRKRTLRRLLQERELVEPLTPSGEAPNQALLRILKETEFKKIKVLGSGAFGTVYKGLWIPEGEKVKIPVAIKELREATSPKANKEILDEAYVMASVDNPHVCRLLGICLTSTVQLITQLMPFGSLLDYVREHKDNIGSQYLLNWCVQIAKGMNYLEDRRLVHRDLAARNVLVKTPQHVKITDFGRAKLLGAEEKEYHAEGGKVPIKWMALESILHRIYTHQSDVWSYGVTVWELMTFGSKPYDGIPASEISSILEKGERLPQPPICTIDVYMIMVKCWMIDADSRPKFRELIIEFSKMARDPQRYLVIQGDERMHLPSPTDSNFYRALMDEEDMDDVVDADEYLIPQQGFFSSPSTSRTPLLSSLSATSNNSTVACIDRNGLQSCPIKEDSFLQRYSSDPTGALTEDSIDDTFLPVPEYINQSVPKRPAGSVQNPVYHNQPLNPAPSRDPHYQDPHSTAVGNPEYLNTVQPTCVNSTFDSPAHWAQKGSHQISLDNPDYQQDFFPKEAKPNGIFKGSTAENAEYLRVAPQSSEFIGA
Description: H1975-clone #8 (L858R/C797S): EGFR-L858R/C797S were stably expressed in H1975 cell lines by lentivirus-mediated over-expression, respectively. The EGFR over-expressed cells then underwent knockout, in which the EGFR targeting sgRNA was designed to only target the endogenous EGFR copies and preserve the exogenous EGFR copies. Followed by the knockout, the edited H1975 cells were seeded in 96 well plates at the concentration of […], cultured for about 2 weeks to allow single clones formation. The formed clones were screened by DNA sequencing and whole exon sequencing analysis for the desired edition. H1975-clone #8 were finally confirmed as homozygous L858R/C797S EGFR clones.
(§1) H1975-#8 and BaF3-L858R cells are treated with compounds diluted in 0.1% DMSO cell culture medium on day 2, incubate for 16 h, 37° C., 5% CO2. the final concentration of compounds in all assay is start with 10 uM, 5-fold dilution, total 8 doses were included.
(§2) After 16 h treatment, for H1975-#8 cells, add 100 ul HTRF 1× lysis buffer to each well; for BaF3-L858R cells, add 20 μl 4× lysis buffer to each well; seal the plate and incubate 1 hour at room temperature on a plate shaker; Once the cells are lysed, 16 μL of cell lysate are transferred to a PE 384-well HTRF detection plate; 4 μL of pre-mixed HTRF antibodies are added to each well; Cover the plate with a plate sealer, spin 1000 rpm for 1 min, Incubate overnight at room temperature; Read on BMG PheraStar with HTRF protocol (337 nm-665 nm-620 nm).
(§3) The inhibition (degradation) percentage of the compound was calculated by the following equation:
(§4) High control=Cell group with added DMSO and without compound, indicating microplate readings without EGFR degradation;
(§5) Dmax is the maximum percentage of inhibition (degradation).
(§6) The IC50(DC50) value of a compound can be obtained by fitting the following equation
(§7) Wherein, X and Y are known values, and IC50, Hillslope, Top and Bottom are the parameters obtained by fitting with software. Y is the inhibition percentage (calculated from the equation), X is the concentration of the compound; IC50 is the concentration of the compound when the 50% inhibition is reached. The smaller the IC50 value is, the stronger the inhibitory ability of the compound is. Vice versa, the higher the IC50 value is, the weaker the ability the inhibitory ability of the compound is; Hillslope represents the slope of the fitted curve, generally around 1*; Bottom represents the minimum value of the curve obtained by data fitting, which is generally 0%±20%; Top represents the maximum value of the curve obtained by data fitting, which is generally 100%±20%. The experimental data were fitted by calculating and analyzing with Dotmatics data analysis software.

[2] = molecular target: T2, EGFR L858R (BaF3-L858R cells) (Homo sapiens, UniProt P00533, L858R); assay: EGFR degradation in BaF3-L858R cells (HTRF assay); type: cell-based; conditions: 16 h treatment; for DC50: IC50(DC50) of EGFR degradation; for Dmax: maximum percentage of inhibition (degradation)
T2 construct: host or cells: BaF3
T2 sequence (P00533 25-1210 L858R): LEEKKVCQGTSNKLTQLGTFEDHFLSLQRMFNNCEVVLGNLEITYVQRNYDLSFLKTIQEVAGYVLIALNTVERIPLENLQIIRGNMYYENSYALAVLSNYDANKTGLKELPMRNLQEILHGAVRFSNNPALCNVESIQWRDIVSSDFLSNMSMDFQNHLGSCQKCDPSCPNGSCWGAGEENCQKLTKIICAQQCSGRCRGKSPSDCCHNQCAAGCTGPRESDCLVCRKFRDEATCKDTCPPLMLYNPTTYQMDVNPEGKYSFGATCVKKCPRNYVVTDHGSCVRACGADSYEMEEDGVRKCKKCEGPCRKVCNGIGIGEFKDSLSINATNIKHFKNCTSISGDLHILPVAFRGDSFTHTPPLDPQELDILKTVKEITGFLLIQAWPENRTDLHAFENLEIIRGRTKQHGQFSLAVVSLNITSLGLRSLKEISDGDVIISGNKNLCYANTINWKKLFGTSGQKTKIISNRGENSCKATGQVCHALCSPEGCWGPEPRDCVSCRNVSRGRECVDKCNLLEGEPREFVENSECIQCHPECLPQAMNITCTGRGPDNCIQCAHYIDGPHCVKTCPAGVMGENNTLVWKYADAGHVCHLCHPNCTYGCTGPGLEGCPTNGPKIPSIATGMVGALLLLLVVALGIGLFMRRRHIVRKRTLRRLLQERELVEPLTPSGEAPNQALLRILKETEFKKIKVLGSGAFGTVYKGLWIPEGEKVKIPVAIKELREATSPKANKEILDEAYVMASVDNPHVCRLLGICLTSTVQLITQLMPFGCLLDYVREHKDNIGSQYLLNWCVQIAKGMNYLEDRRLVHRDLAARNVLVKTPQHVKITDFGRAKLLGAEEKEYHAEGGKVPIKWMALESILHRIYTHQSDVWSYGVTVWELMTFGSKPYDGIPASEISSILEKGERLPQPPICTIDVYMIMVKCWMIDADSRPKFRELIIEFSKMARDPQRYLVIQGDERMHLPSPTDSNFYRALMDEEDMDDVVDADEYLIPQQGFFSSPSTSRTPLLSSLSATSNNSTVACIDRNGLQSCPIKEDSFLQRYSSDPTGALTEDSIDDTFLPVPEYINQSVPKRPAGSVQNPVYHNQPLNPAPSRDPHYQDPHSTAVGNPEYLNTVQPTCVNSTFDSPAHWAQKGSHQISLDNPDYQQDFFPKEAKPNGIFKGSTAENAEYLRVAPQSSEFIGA
Description: BaF3-L858R (abbv. L858R) cell were purchased from Kangyuan Bochuang Biotechnology (Beijing) Co., Ltd.
as §1, §2, §3, §4, §5, §6, §7

SMILES: Cc1cc2cc(n1)-c1cnn(C)c1OCC[C@H]1C[C@@H]1CN1/C(=N/C2=O)Nc2ccc(N3CCN(C4CN(C5CCN(c6cc(F)c([C@H]7CCC(=O)NC7=O)c(F)c6)CC5)C4)CC3)cc21 [Example 10, (R)-3-(4-(4-(3-(4-((7^1S,7^2R,E)-1^1,2^6-dimethyl-3-oxo-5^2,5^3-dihydro-1^1H,5^1H-10-oxa-4-aza-5 (2,1)-benzo[d]imidazola-2 (2,4)-pyridina-1 (4,5)-pyrazola-7 (1,2)-cyclopropanacyclodecaphane-5^6-yl)piperazin-1-yl)azetidin-1-yl)piperidin-1-yl)-2,6-difluorophenyl)piperidine-2,6-dione]
- DC50 [1]: > 10000 nM
- Dmax [1]: 31.2%
- DC50 [2]: 6.97 nM
- Dmax [2]: 91.3%

SMILES: Cc1cc2cc(n1)-c1cnn(C)c1OCC[C@]1(C)C[C@H]1CN1/C(=N/C2=O)Nc2ccc(N3CCN(C4CCN(c5ccc(C6CCC(=O)NC6=O)nc5C)CC4)CC3)cc21 (some centres unmarked) [Example 19, 3-(6-methyl-5-(4-(4-((7^1R,7^2S,E)-1^1,2^6,7^2-trimethyl-3-oxo-5^2,5^3-dihydro-1^1H,5^1H-10-oxa-4-aza-5 (2,1)-benzo[d]imidazola-2 (2,4)-pyridina-1 (4,5)-pyrazola-7 (1,2)-cyclopropanacyclodecaphane-5^6-yl)piperazin-1-yl)piperidin-1-yl)pyridin-2-yl)piperidine-2,6-dione]
- DC50 [1]: 3 nM
- Dmax [1]: 75%
- DC50 [2]: 1.93 nM
- Dmax [2]: 94.5%

SMILES: COC[C@@H]1CN(c2ccc3c(c2)N2C[C@@H]4C[C@@]4(C)CCOc4c(cnn4C)-c4cc(cc(C)n4)C(=O)/N=C/2N3)CCN1C1CCN(c2cc(F)c([C@H]3CCC(=O)NC3=O)c(F)c2)CC1 [Example 26, (R)-3-(2,6-difluoro-4-(4-((S)-2-(methoxymethyl)-4-((7^1R,7^2S,E)-1^1,2^6,7^2-trimethyl-3-oxo-5^2,5^3-dihydro-1^1H,5^1H-10-oxa-4-aza-5 (2,1)-benzo[d]imidazola-2 (2,4)-pyridina-1 (4,5)-pyrazola-7 (1,2)-cyclopropanacyclodecaphane-5^6-yl)piperazin-1-yl)piperidin-1-yl)phenyl)piperidine-2,6-dione]
- DC50 [1]: 3.41 nM
- Dmax [1]: 58.9%
- DC50 [2]: 4.02 nM
- Dmax [2]: 85.7%

SMILES: Cc1cc2cc(n1)-c1cnn(C)c1OCC[C@H]1C[C@@H]1CN1/C(=N/C2=O)Nc2ccc(N3CCN(C4CN(C5CCN(c6c(C)cc(C7CCC(=O)NC7=O)nc6C)CC5)C4)C[C@@H]3C)cc21 (stereo partly drawn) [Example 22, 3-(5-(4-(3-((S)-4-((7^1S,7^2R,E)-1^1,2^6-dimethyl-3-oxo-5^2,5^3-dihydro-1^1H,5^1H-10-oxa-4-aza-5 (2,1)-benzo[d]imidazola-2 (2,4)-pyridina-1 (4,5)-pyrazola-7 (1,2)-cyclopropanacyclodecaphane-5^6-yl)-3-methylpiperazin-1-yl)azetidin-1-yl)piperidin-1-yl)-4,6-dimethylpyridin-2-yl)piperidine-2,6-dione]
- DC50 [1]: 2.83 nM
- Dmax [1]: 67.9%
- DC50 [2]: 3.97 nM
- Dmax [2]: 83.2%

SMILES: Cc1cc2cc(n1)-c1cnn(C)c1OCC[C@H]1C[C@@H]1CN1/C(=N/C2=O)Nc2ccc(N3CCN(C4CN(C5CCN(c6ccc(C7CCC(=O)NC7=O)nc6C)CC5)C4)C[C@H]3C)cc21 (stereo partly drawn) [Example 37, 3-(5-(4-(3-((R)-4-((7^1S,7^2R,E)-1^1,2^6-dimethyl-3-oxo-5^2,5^3-dihydro-1^1H,5^1H-10-oxa-4-aza-5 (2,1)-benzo[d]imidazola-2 (2,4)-pyridina-1 (4,5)-pyrazola-7 (1,2)-cyclopropanacyclodecaphane-5^6-yl)-3-methylpiperazin-1-yl)azetidin-1-yl)piperidin-1-yl)-6-methylpyridin-2-yl)piperidine-2,6-dione]
- DC50 [1]: 8.34 nM
- Dmax [1]: 55.9%
- DC50 [2]: 7.92 nM
- Dmax [2]: 64.5%

SMILES: Cc1cc2cc(n1)-c1cnn(C)c1OCC[C@H]1C[C@@H]1CN1/C(=N/C2=O)Nc2ccc(N3CCN(C4CCN(c5c(C)cc(C6CCC(=O)NC6=O)nc5C)CC4)CC3)cc21 (some centres unmarked) [Example 15, 3-(5-(4-(4-((7^1S,7^2R,E)-1^1,2^6-dimethyl-3-oxo-5^2,5^3-dihydro-1^1H,5^1H-10-oxa-4-aza-5 (2,1)-benzo[d]imidazola-2 (2,4)-pyridina-1 (4,5)-pyrazola-7 (1,2)-cyclopropanacyclodecaphane-5^6-yl)piperazin-1-yl)piperidin-1-yl)-4,6-dimethylpyridin-2-yl)piperidine-2,6-dione]
- DC50 [1]: 4.96 nM
- Dmax [1]: 46.1%
- DC50 [2]: 4.48 nM
- Dmax [2]: 82.5%

SMILES: Cc1cc2cc(n1)-c1cnn(C)c1OCC[C@]1(C)C[C@H]1CN1/C(=N/C2=O)Nc2ccc(N3CCC(C(=O)N4CCC(Oc5cc(F)c([C@H]6CCC(=O)NC6=O)c(F)c5)CC4)CC3)cc21 [Example 29, (R)-3-(2,6-difluoro-4-((1-(1-((7^1R,7^2S,E)-1^1,2^6,7^2-trimethyl-3-oxo-5^2,5^3-dihydro-1^1H,5^1H-10-oxa-4-aza-5 (2,1)-benzo[d]imidazola-2 (2,4)-pyridina-1 (4,5)-pyrazola-7 (1,2)-cyclopropanacyclodecaphane-5^6-yl)piperidine-4-carbonyl)piperidin-4-yl)oxy)phenyl)piperidine-2,6-dione]
- DC50 [1]: 0.986 nM
- Dmax [1]: 49.2%
- DC50 [2]: 3.9 nM
- Dmax [2]: 67.8%

SMILES: Cc1cc2cc(n1)-c1cnn(C)c1OCC[C@H]1C[C@@H]1CN1/C(=N/C2=O)Nc2ccc(N3CCN(C4CN(C5CCN(c6c(C)cc(C7CCC(=O)NC7=O)nc6C)CC5)C4)C[C@H]3C)cc21 (stereo partly drawn) [Example 24, 3-(5-(4-(3-((R)-4-((7^1S,7^2R,E)-1^1,2^6-dimethyl-3-oxo-5^2,5^3-dihydro-1^1H,5^1H-10-oxa-4-aza-5 (2,1)-benzo[d]imidazola-2 (2,4)-pyridina-1 (4,5)-pyrazola-7 (1,2)-cyclopropanacyclodecaphane-5^6-yl)-3-methylpiperazin-1-yl)azetidin-1-yl)piperidin-1-yl)-4,6-dimethylpyridin-2-yl)piperidine-2,6-dione]
- DC50 [1]: 2.08 nM
- Dmax [1]: 49.8%
- DC50 [2]: 3.66 nM
- Dmax [2]: 80%

SMILES: Cc1cc2cc(n1)-c1cnn(C)c1OCC[C@]1(C)C[C@H]1CN1/C(=N/C2=O)Nc2ccc(N3CCN(C4CCN(c5cc(F)c(C6CCC(=O)NC6=O)nc5C)CC4)CC3)cc21 (some centres unmarked) [Example 54, 3-(3-fluoro-6-methyl-5-(4-(4-((7^1R,7^2S,E)-1^1,2^6,7^2-trimethyl-3-oxo-5^2,5^3-dihydro-1^1H,5^1H-10-oxa-4-aza-5 (2,1)-benzo[d]imidazola-2 (2,4)-pyridina-1 (4,5)-pyrazola-7 (1,2)-cyclopropanacyclodecaphane-5^6-yl)piperazin-1-yl)piperidin-1-yl)pyridin-2-yl)piperidine-2,6-dione]
- DC50 [1]: 2.11 nM
- Dmax [1]: 77.7%
- DC50 [2]: 3.35 nM
- Dmax [2]: 91.9%

SMILES: Cc1cc2cc(n1)-c1cnn(C)c1OCC[C@H]1C[C@@H]1CN1/C(=N/C2=O)Nc2ccc(N3CCN(C4CN(C5CCN(c6ccc(C7CCC(=O)NC7=O)nc6C)CC5)C4)CC3)cc21 (some centres unmarked) [Example 20, 3-(5-(4-(3-(4-((7^1S,7^2R,E)-1^1,2^6-dimethyl-3-oxo-5^2,5^3-dihydro-1^1H,5^1H-10-oxa-4-aza-5 (2,1)-benzo[d]imidazola-2 (2,4)-pyridina-1 (4,5)-pyrazola-7 (1,2)-cyclopropanacyclodecaphane-5^6-yl)piperazin-1-yl)azetidin-1-yl)piperidin-1-yl)-6-methylpyridin-2-yl)piperidine-2,6-dione]
- DC50 [1]: 0.603 nM
- Dmax [1]: 59.1%
- DC50 [2]: 12.4 nM
- Dmax [2]: 86.8%

SMILES: Cc1cc2cc(n1)-c1cnn(C)c1OCC[C@]1(C)C[C@H]1CN1/C(=N/C2=O)Nc2ccc(N3CCN([C@@H]4CCN(c5cc(F)c(C6CCC(=O)NC6=O)nc5C)C[C@@H]4F)CC3)cc21 (stereo partly drawn) [Example 43, 3-(3-fluoro-5-((3S,4R)-3-fluoro-4-(4-((7^1R,7^2S,E)-1^1,2^6,7^2-trimethyl-3-oxo-5^2,5^3-dihydro-1^1H,5^1H-10-oxa-4-aza-5 (2,1)-benzo[d]imidazola-2 (2,4)-pyridina-1 (4,5)-pyrazola-7 (1,2)-cyclopropanacyclodecaphane-5^6-yl)piperazin-1-yl)piperidin-1-yl)-6-methylpyridin-2-yl)piperidine-2,6-dione]
- DC50 [1]: 2.81 nM
- Dmax [1]: 88.8%
- DC50 [2]: 1.74 nM
- Dmax [2]: 86.2%
